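Method: 48-hour compound exposure of cells in 96-well plates, five concentrations, linear interpolation of endpoints. The concentration for 50% growth inhibition is given as GI50.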 Calls of active or inactive are those of the source. No stated cut-off is given here; in the data, active = GI50 up to about 1.1 µM and inactive = higher.
How the values were obtained:
Experiment in all cases: NCI tumour cell line growth inhibition, 48 h
K562 = tested on: K562
786-0 = tested on: 786-0
HL-60 = tested on: HL-60
M14 = tested on: M14
CAKI-1 = tested on: CAKI-1
TK-10 = tested on: TK-10
NCI-H522 = tested on: NCI-H522
HCT-15 = tested on: HCT-15
RXF 393 = tested on: RXF 393
DLD-1 = tested on: DLD-1
KM-20L2 = tested on: KM-20L2
XF498 = tested on: XF498
NCI-H23 = tested on: NCI-H23
IGROV-1 = tested on: IGROV-1
SK-MEL-5 = tested on: SK-MEL-5
SF-295 = tested on: SF-295
SNB-75 = tested on: SNB-75
SW-620 = tested on: SW-620
EKVX = tested on: EKVX
SR = tested on: SR
SK-MEL-2 = tested on: SK-MEL-2
OVCAR-8 = tested on: OVCAR-8
UACC-257 = tested on: UACC-257
KM12 = tested on: KM12
OVCAR-4 = tested on: OVCAR-4
SF-539 = tested on: SF-539
UO-31 = tested on: UO-31
A549 = tested on: A549
HCT-116 = tested on: HCT-116
OVCAR-3 = tested on: OVCAR-3
SNB-78 = tested on: SNB-78
M19-MEL = tested on: M19-MEL
LOX IMVI = tested on: LOX IMVI
UACC-62 = tested on: UACC-62
RPMI-8226 = tested on: RPMI-8226
HOP-18 = tested on: HOP-18
CCRF-CEM = tested on: CCRF-CEM
SK-OV-3 = tested on: SK-OV-3
DMS-114 = tested on: DMS-114
A498 = tested on: A498
SF-268 = tested on: SF-268
NCI-H226 = tested on: NCI-H226
SK-MEL-28 = tested on: SK-MEL-28
HOP-62 = tested on: HOP-62
COLO 205 = tested on: COLO 205
ACHN = tested on: ACHN
MOLT-4 = tested on: MOLT-4
U-251 = tested on: U-251
SN12C = tested on: SN12C
Malme-3M = tested on: Malme-3M
OVCAR-5 = tested on: OVCAR-5
LXFL 529 = tested on: LXFL 529
NCI-H460 = tested on: NCI-H460
HOP-92 = tested on: HOP-92
HT-29 = tested on: HT-29
DMS-273 = tested on: DMS-273

Q: For `C[N+]1=c2c3cccc4cccc(c(=O)n2CCC1)c43`, which GI50 (K562) is on record?
A: 9.02 µM (inactive)

Q: What about the GI50 (786-0) of the same molecule?
A: 35.9 µM (inactive)

Q: And the GI50 (HL-60)?
A: 4.36 µM (inactive)

Q: And the GI50 (M14)?
A: 17.2 µM (inactive)

Q: What about the GI50 (CAKI-1) of the same molecule?
A: 31 µM (inactive)

Q: And the GI50 (TK-10)?
A: 14.6 µM (inactive)

Q: What about the GI50 (NCI-H522) of the same molecule?
A: 15.8 µM (inactive)

Q: And the GI50 (HCT-15)?
A: 35.6 µM

Q: What about the GI50 (RXF 393) of the same molecule?
A: 22.1 µM (inactive)

Q: What about the GI50 (DLD-1) of the same molecule?
A: 21.4 µM (inactive)

Q: What about the GI50 (KM-20L2) of the same molecule?
A: 20 µM (inactive)

Q: And the GI50 (XF498)?
A: 18.6 µM (inactive)

Q: What about the GI50 (NCI-H23) of the same molecule?
A: 19 µM (inactive)

Q: And the GI50 (IGROV-1)?
A: 36 µM (inactive)

Q: And the GI50 (SK-MEL-5)?
A: 17.9 µM (inactive)

Q: And the GI50 (SF-295)?
A: 40.4 µM (inactive)

Q: And the GI50 (SNB-75)?
A: 25.1 µM (inactive)

Q: And the GI50 (SW-620)?
A: 25.2 µM (inactive)

Q: And the GI50 (EKVX)?
A: 24.9 µM (inactive)

Q: What about the GI50 (SR) of the same molecule?
A: 18.2 µM (inactive)

Q: What about the GI50 (SK-MEL-2) of the same molecule?
A: 16.6 µM (inactive)

Q: And the GI50 (OVCAR-8)?
A: 17.7 µM (inactive)

Q: And the GI50 (UACC-257)?
A: 17.3 µM (inactive)

Q: What about the GI50 (KM12) of the same molecule?
A: 31 µM (inactive)

Q: And the GI50 (OVCAR-4)?
A: 18.9 µM (inactive)

Q: What about the GI50 (SF-539) of the same molecule?
A: 30.8 µM (inactive)

Q: And the GI50 (UO-31)?
A: 17.9 µM (inactive)

Q: And the GI50 (A549)?
A: 32.2 µM (inactive)

Q: What about the GI50 (HCT-116) of the same molecule?
A: 16.1 µM (inactive)

Q: What about the GI50 (OVCAR-3) of the same molecule?
A: 22.9 µM (inactive)

Q: And the GI50 (SNB-78)?
A: 29 µM (inactive)

Q: And the GI50 (M19-MEL)?
A: 17.9 µM (inactive)

Q: What about the GI50 (LOX IMVI) of the same molecule?
A: 15.3 µM (inactive)

Q: And the GI50 (UACC-62)?
A: 18.7 µM (inactive)

Q: And the GI50 (RPMI-8226)?
A: 19.6 µM (inactive)

Q: And the GI50 (HOP-18)?
A: 53.8 µM (inactive)

Q: And the GI50 (CCRF-CEM)?
A: 3.13 µM (inactive)

Q: And the GI50 (SK-OV-3)?
A: 27.5 µM (inactive)

Q: And the GI50 (DMS-114)?
A: 20.6 µM (inactive)

Q: And the GI50 (A498)?
A: 18.5 µM (inactive)

Q: What about the GI50 (SF-268) of the same molecule?
A: 23.5 µM (inactive)

Q: What about the GI50 (NCI-H226) of the same molecule?
A: 18.4 µM (inactive)

Q: And the GI50 (SK-MEL-28)?
A: 19.4 µM (inactive)

Q: And the GI50 (HOP-62)?
A: 31 µM (inactive)

Q: What about the GI50 (COLO 205) of the same molecule?
A: 16.2 µM (inactive)

Q: What about the GI50 (ACHN) of the same molecule?
A: 22.4 µM (inactive)

Q: And the GI50 (MOLT-4)?
A: 19.9 µM (inactive)

Q: What about the GI50 (U-251) of the same molecule?
A: 29.9 µM (inactive)

Q: And the GI50 (SN12C)?
A: 21 µM (inactive)

Q: What about the GI50 (Malme-3M) of the same molecule?
A: 18 µM (inactive)

Q: And the GI50 (OVCAR-5)?
A: 17.8 µM (inactive)

Q: And the GI50 (LXFL 529)?
A: 17.6 µM (inactive)

Q: And the GI50 (NCI-H460)?
A: 18.2 µM (inactive)

Q: And the GI50 (HOP-92)?
A: 28.1 µM (inactive)

Q: What about the GI50 (HT-29) of the same molecule?
A: 20.1 µM (inactive)

Q: What about the GI50 (DMS-273) of the same molecule?
A: 24.4 µM (inactive)

From ChEMBL document CHEMBL1201862, “PubChem BioAssay data set” (2004)
